Earlier results on one compound are cited in patent publication US20050169988A1, “High molecular weight, lipophilic, orally ingestible bioactive agents in formulations having improved bioavailability” (Shaklee Corporation, priority 2001, published 2005).

Consider `COC1=C(OC)C(=O)C(C/C=C(\C)CC/C=C(\C)CC/C=C(\C)CC/C=C(\C)CC/C=C(\C)CC/C=C(\C)CC/C=C(\C)CC/C=C(\C)CC/C=C(\C)CCC=C(C)C)=C(C)C1=O` [CoQ10, 2,3-dimethoxy-5-methyl-6-decaprenyl-1,4-benzoquinone], for which the Solubility in water entry is “practically insoluble in water”.
